Experiments:
Type in all cases: cell-based
[1] = tested on: Staphylococcus aureus (S. aureus); test: Quantitative test of bacterial suspension, S. aureus; conditions: for Anti-bacteria ratio / Remaining bacteria: S. aureus, incubated 24 hours
Description: (§1) S. aureus, E. coli, MRSA and P. acnes were respectively prepared to form a suspension. The concentration of the suspension was about 1.5×10^8 CFU/ml (density=0.5 McFarland), and then was diluted 100 times (about 1.5×10^6 CFU/ml).
(§2) L-ascorbic acid solutions were prepared respectively in concentrations of 1 wt %, 5 wt %, 10 wt %, 15 wt %, 20 wt %, 25 wt % and 30 wt %. The different concentrations of L-ascorbic acid solutions were used as a test. A hydrochloric acid solution and distilled water were used respectively as a positive control and a negative control, and the pH value of the hydrochloric acid solution was the same of the pH value of the 25 wt % L-ascorbic acid solution.
(§3) 1 ml bacterial suspension was added to a 9 ml L-ascorbic acid solution for testing, and equal amounts of the bacterial suspension were added respectively to the positive control of 9 ml hydrochloric acid solution and the negative control of 9 ml distilled water, and then all solutions were incubated for 24 hours.
(§4) After incubating for 24 hours, all the solutions were series diluted, until diluted 1000 times to form a series of dilution solutions.
(§5) To calculate bacteria remaining in the solutions, 0.2 ml of each series of dilution solutions were cultured respectively on Petri dishes and repeated twice.
(§6) Each Petri dish was cultured in an incubator at 35±2° C. for 1˜2 days (S. aureus, E. coli) or for 2˜4 days (MRSA and P. acnes) to observe bacteria growth on Petri dish and the bacteria were counted.
(§7) Anti-bacterial ratio (%)=[(remaining bacteria of controls−remaining bacteria of test)/remaining bacteria of controls]×100%

[2] = tested on: Methicillin-resistant Staphylococcus aureus (MRSA); test: Quantitative test of bacterial suspension, MRSA; conditions: for Anti-bacteria ratio / Remaining bacteria: MRSA, incubated 24 hours
Description: as §1, §2, §3, §4, §5, §6, §7

[3] = tested on: Escherichia coli (E. coli); test: Quantitative test of bacterial suspension, E. coli; conditions: for Anti-bacteria ratio / Remaining bacteria: E. coli, incubated 24 hours
Description: as §1, §2, §3, §4, §5, §6, §7

[4] = tested on: Propionibacterium acnes (P. acnes); test: Quantitative test of bacterial suspension, P. acnes; conditions: for Anti-bacteria ratio / Remaining bacteria: P. acnes, incubated 24 hours
Description: as §1, §2, §3, §4, §5, §6, §7

[5] = 1 wt % to 30 wt % solution, incubating for 24 hours
[6] = positive control solution, pH 1.68

Compound: O=C1O[C@H]([C@@H](O)CO)C(O)=C1O [L-ascorbic acid]
- remaining S. aureus found ([1]; 15 wt % to 30 wt % solution, incubating for 24 hours): no remaining
- Anti-bacteria ratio ([1]; 1% solution, pH 2.70): 99.72%
- Remaining bacteria ([1]; 1% solution, pH 2.70): 2.5 × 10^4 CFU/mL
- Anti-bacteria ratio ([1]; 5% solution, pH 2.28): 99.97%
- Remaining bacteria ([1]; 5% solution, pH 2.28): 3.0 × 10^3 CFU/mL
- Anti-bacteria ratio ([1]; 10% solution, pH 2.05): 99.99%
- Remaining bacteria ([1]; 10% solution, pH 2.05): 2.0 × 10^2 CFU/mL
- Anti-bacteria ratio ([1]; 15% solution, pH 1.93): 100%
- Remaining bacteria ([1]; 15% solution, pH 1.93): 0 CFU/mL
- Anti-bacteria ratio ([1]; 20% solution, pH 1.80): 100%
- Remaining bacteria ([1]; 20% solution, pH 1.80): 0 CFU/mL
- Anti-bacteria ratio ([1]; 25% solution, pH 1.68): 100%
- Remaining bacteria ([1]; 25% solution, pH 1.68): 0 CFU/mL
- Anti-bacteria ratio ([1]; 30% solution, pH 1.59): 100%
- Remaining bacteria ([1]; 30% solution, pH 1.59): 0 CFU/mL
- remaining MRSA found ([2]; 5 wt % to 30 wt % solution, incubating for 24 hours): no remaining
- Anti-bacteria ratio ([2]; 1% solution, pH 2.70): 99.99%
- Remaining bacteria ([2]; 1% solution, pH 2.70): 2.0 × 10^3 CFU/mL
- Anti-bacteria ratio ([2]; 5% solution, pH 2.28): 100%
- Remaining bacteria ([2]; 5% solution, pH 2.28): 0 CFU/mL
- Anti-bacteria ratio ([2]; 10% solution, pH 2.05): 100%
- Remaining bacteria ([2]; 10% solution, pH 2.05): 0 CFU/mL
- Anti-bacteria ratio ([2]; 15% solution, pH 1.93): 100%
- Remaining bacteria ([2]; 15% solution, pH 1.93): 0 CFU/mL
- Anti-bacteria ratio ([2]; 20% solution, pH 1.80): 100%
- Remaining bacteria ([2]; 20% solution, pH 1.80): 0 CFU/mL
- Anti-bacteria ratio ([2]; 25% solution, pH 1.68): 100%
- Remaining bacteria ([2]; 25% solution, pH 1.68): 0 CFU/mL
- Anti-bacteria ratio ([2]; 30% solution, pH 1.59): 100%
- Remaining bacteria ([2]; 30% solution, pH 1.59): 0 CFU/mL
- remaining E. coli found in the Petri dishes [3, 5]: no remaining
- Anti-bacteria ratio ([3]; 1% solution, pH 2.70): 100%
- Remaining bacteria ([3]; 1% solution, pH 2.70): 0 CFU/mL
- Anti-bacteria ratio ([3]; 5% solution, pH 2.28): 100%
- Remaining bacteria ([3]; 5% solution, pH 2.28): 0 CFU/mL
- Anti-bacteria ratio ([3]; 10% solution, pH 2.05): 100%
- Remaining bacteria ([3]; 10% solution, pH 2.05): 0 CFU/mL
- Anti-bacteria ratio ([3]; 15% solution, pH 1.93): 100%
- Remaining bacteria ([3]; 15% solution, pH 1.93): 0 CFU/mL
- Anti-bacteria ratio ([3]; 20% solution, pH 1.80): 100%
- Remaining bacteria ([3]; 20% solution, pH 1.80): 0 CFU/mL
- Anti-bacteria ratio ([3]; 25% solution, pH 1.68): 100%
- Remaining bacteria ([3]; 25% solution, pH 1.68): 0 CFU/mL
- Anti-bacteria ratio ([3]; 30% solution, pH 1.59): 100%
- Remaining bacteria ([3]; 30% solution, pH 1.59): 0 CFU/mL
- remaining P. acnes found in the Petri dishes [4, 5]: no remaining
- Anti-bacteria ratio ([4]; 1% solution, pH 2.70): 100%
- Remaining bacteria ([4]; 1% solution, pH 2.70): 0 CFU/mL
- Anti-bacteria ratio ([4]; 5% solution, pH 2.28): 100%
- Remaining bacteria ([4]; 5% solution, pH 2.28): 0 CFU/mL
- Anti-bacteria ratio ([4]; 10% solution, pH 2.05): 100%
- Remaining bacteria ([4]; 10% solution, pH 2.05): 0 CFU/mL
- Anti-bacteria ratio ([4]; 15% solution, pH 1.93): 100%
- Remaining bacteria ([4]; 15% solution, pH 1.93): 0 CFU/mL
- Anti-bacteria ratio ([4]; 20% solution, pH 1.80): 100%
- Remaining bacteria ([4]; 20% solution, pH 1.80): 0 CFU/mL
- Anti-bacteria ratio ([4]; 25% solution, pH 1.68): 100%
- Remaining bacteria ([4]; 25% solution, pH 1.68): 0 CFU/mL
- Anti-bacteria ratio ([4]; 30% solution, pH 1.59): 100%
- Remaining bacteria ([4]; 30% solution, pH 1.59): 0 CFU/mL

Compound: Cl [Hydrochloric acid, reference compound]
- Anti-bacteria ratio [1, 6]: 99.99%
- Remaining bacteria [1, 6]: 18 CFU/mL
- Anti-bacteria ratio [3, 6]: 100%
- Remaining bacteria [3, 6]: 0 CFU/mL
